From ChEMBL document CHEMBL1150280, “Mono-tetrahydrofuran annonaceous acetogenins from Annona squamosa as cytotoxic agents and calcium ion chelators” (J Nat Prod, 2008) come the findings set out here.

One assay concerns MCF7. As to the kind of experiment: cells. As to conditions: Homo sapiens, MCF7, 72 h.
Assay [1] is described as follows: Cytotoxicity against human Hep3B cells after 3 days by MTT assay. The conditions noted are these: 72 h.
The subject of the next assay is MDA-MB-231. As to the kind of experiment: cells. As to conditions: Homo sapiens, MDA-MB-231, 72 h.
Another assay relates to HepG2. Briefly: Cytotoxicity against human HepG2 cells after 3 days by MTT assay. The conditions noted are these: HepG2, 72 h.
In another assay the test system is A549. As to the kind of experiment: Cytotoxicity against human A549 cells after 3 days by MTT assay. As to conditions: A549, 72 h. (In general: Formazan colour is commonly taken as a measure of viable cells.)

Structures are written as SMILES.

By IC50 is commonly meant the concentration at which inhibition is half-maximal. A high value points to lower potency.

Description for MCF7: Cytotoxicity against human MCF7 cells after 3 days by MTT assay
Description for MDA-MB-231: Cytotoxicity against human MDA-MB-231 cells after 3 days by MTT assay

As to `CCCCCCCCCC[C@@H](O)[C@H]1CC[C@H]([C@H](O)CCCCCCCCCCCCCCCCC2=C[C@H](C)OC2=O)O1`, the IC50 in the assay with MCF7 is 3.31 µM.

In the assay on MCF7, `CCCCCCCCCCCCCC[C@@H](O)[C@H]1CC[C@H]([C@H](O)CCCCCCCCCCCCC2=C[C@H](C)OC2=O)O1` yielded an IC50 of 28.3 µM.

Turning to `CCCCCCCCCC[C@@H](O)[C@H]1CC[C@@H]([C@@H](O)CCCCCCCCCCCCCCC2=C[C@H](C)OC2=O)O1`, in the assay with MCF7, the 50% inhibitory concentration (IC50) amounted to 30.7 µM.

For `CCCCCCCCCCCCC(O)C1CCC(C(O)CCCCCCCCCCCCCCC2=CC(C)OC2=O)O1` (stereo not given), the half-inhibitory concentration (IC50) in the assay with MCF7 came to 8.11 µM.

In the case of `CCCCCCCCCC/C=C\CC[C@@H](O)[C@H]1CC[C@H]([C@H](O)CCCCCCCCCCCCC2=C[C@H](C)OC2=O)O1` [BULLATENCIN], 31.4 µM corresponded to half-maximal inhibition in assay [1] (IC50).

On to `CC(=O)O[C@H]1C(=O)[C@@]2(C)[C@H]([C@H](OC(=O)c3ccccc3)[C@]3(O)C[C@H](OC(=O)[C@H](O)[C@@H](NC(=O)c4ccccc4)c4ccccc4)C(C)=C1C3(C)C)[C@]1(OC(C)=O)CO[C@@H]1C[C@@H]2O` [PACLITAXEL], for which the half-inhibitory concentration (IC50) was found to be 0.0703 µM in the assay on MDA-MB-231, 0.0468 µM in the assay on HepG2 and 0.13 µM in assay [1].

As for `CCCCCCC(O)CCC[C@H](O)[C@H]1CC[C@H]([C@H](O)CC[C@@H](O)[C@H](O)CCCCCCCCCCCCC2=C[C@H](C)OC2=O)O1` (stereo not given in full) [SQUADIOLIN A], the IC50 in the assay on MDA-MB-231 is 0.63 µM; in the assay with A549, less than 0.2 µM; in the assay with HepG2 it was 0.0056 µM; in assay [1] it was 3.52 µM; in the assay with MCF7, 2.83 µM.

As to `CCCCCCCCCC[C@H](O)[C@@H](O)CC[C@H](O)[C@@H](O)CC[C@@H](O)[C@H]1CC[C@H](CCCCCCCCCC2=C[C@H](C)OC2=O)O1` [SQUADIOLIN B], the concentration for half-maximal inhibition (IC50) with MDA-MB-231 amounted to 0.28 µM; with A549, 2.75 µM; in the assay with HepG2 it was 0.011 µM; in assay [1] it was 6.98 µM; in the assay with MCF7 it was 5.47 µM.

Turning to `CCCCCCCCCCCC[C@H](O)[C@@H](O)CCCC[C@@H](O)[C@H]1CC[C@H](CCCCCCCC(O)CC2=C[C@H](C)OC2=O)O1` (stereo not given in full) [SQUADIOLIN C], the half-maximal inhibitory concentration (IC50) in the assay with MDA-MB-231 is 14.5 µM; with A549, 8.11 µM; in the assay on HepG2 it was 3.48 µM; in the assay on MCF7, 3.62 µM.

For `CCCCCCC(O)C(O)CCCCCC[C@@H](O)[C@H]1CC[C@H]([C@H](O)CCCCCCCCCCCCC2=C[C@H](C)OC2=O)O1` (stereo not given in full) [SQUAFOSACIN B], the IC50 with MDA-MB-231 came to 17 µM; in the assay with A549, 0.66 µM; in the assay with HepG2 it was 0.71 µM; in assay [1], 0.72 µM; with MCF7, 0.96 µM.

As for `CCCCCCCCCC[C@@H](O)[C@H]1CC[C@H]([C@H](O)CCCCCC(O)CCCCCCCCC2=C[C@H](C)OC2=O)O1` (stereo not given in full) [SQUAFOSACIN C], the IC50 with MDA-MB-231 worked out at 18.1 µM; in the assay with A549, 21 µM; in the assay with HepG2, 18.9 µM; in assay [1] it was 14 µM; in the assay with MCF7, 26.4 µM.

With `CCCCCCCCCCCC[C@H](O)[C@H]1CC[C@@H]([C@@H](O)CCCCCCCCCCCCC2=C[C@H](C)OC2=O)O1` [SQUAFOSACIN F], the half-inhibitory concentration (IC50) in the assay with MDA-MB-231 is greater than 36 µM; in the assay with MCF7, 35.1 µM.

In turn, `CCCCCCCCCC[C@H](O)[C@H]1CC[C@@H]([C@@H](O)CCCCCCCCCCCCCCCCC2=C[C@H](C)OC2=O)O1` [SQUAFOSACIN G] came in with an IC50 in the assay with MCF7 of 29.8 µM.
